22 compounds from PubChem BioAssay AID192 (DTP/NCI, 2004) can be followed below.

Where “and” joins values, the source holds several entries; their conditions need not be identical. Equal entries are not always repeated. Toxic doses and inconclusive results are not listed.

The subject of this assay is BDF1 mice, B16 melanoma ip, median survival T/C. Put plainly: NCI In Vivo Anticancer Drug Screen. Data for tumor model B16 Melanoma (intraperitoneal) in B6D2F1 (BDF1) mice. The following applies: endpoint: median survival time, higher = longer survival. The procedure:
The antitumor activity of compounds was measured in mice bearing transplantable tumors. Survival or tumor size were measured and the results are expressed as the measurement made in the treated group (T) divided by the measurement made in the vehicle treated control group (C). The tumor model used in this assay is B16 Melanoma (intraperitoneal) in B6D2F1 (BDF1) mice

Where [1] appears, read: dose: 100.0 mg/kg/injection, schedule: Q01DX009 (ip), vehicle: Klucel (hydroxypropylcellulose) (HPC).
Setting [2] is: dose: 200.0 mg/kg/injection, schedule: Q01DX009 (ip), vehicle: Klucel (hydroxypropylcellulose) (HPC).
[3] abbreviates: dose: 400.0 mg/kg/injection, schedule: Q01DX009 (ip), vehicle: Klucel (hydroxypropylcellulose) (HPC).
Where [4] appears, read: dose: 25.0 mg/kg/injection, schedule: Q01DX009 (ip), vehicle: Klucel (hydroxypropylcellulose) (HPC).
The mark [5] stands for this setting: dose: 50.0 mg/kg/injection, schedule: Q01DX009 (ip), vehicle: Klucel (hydroxypropylcellulose) (HPC).
Where [6] appears, read: dose: 12.5 mg/kg/injection, schedule: Q01DX009 (ip), vehicle: saline with Tween-80.
[7] abbreviates: dose: 3.12 mg/kg/injection, schedule: Q01DX009 (ip), vehicle: saline.
The mark [8] stands for this setting: dose: 6.25 mg/kg/injection, schedule: Q01DX009 (ip), vehicle: saline.
Setting [9] is: dose: 12.5 mg/kg/injection, schedule: Q01DX009 (ip), vehicle: saline.
Where [10] appears, read: dose: 25.0 mg/kg/injection, schedule: Q01DX009 (ip), vehicle: saline with Tween-80.
[11] abbreviates: dose: 50.0 mg/kg/injection, schedule: Q01DX009 (ip), vehicle: saline with Tween-80.
Where [12] appears, read: dose: 100.0 mg/kg/injection, schedule: Q01DX009 (ip), vehicle: saline with Tween-80.
The mark [13] stands for this setting: dose: 200.0 mg/kg/injection, schedule: Q01DX009 (ip), vehicle: saline with Tween-80.
The mark [14] stands for this setting: dose: 400.0 mg/kg/injection, schedule: Q01DX009 (ip), vehicle: saline with Tween-80.

In the case of `CC[n+]1ccc(Nc2ccc(NC(=O)c3ccc(Nc4cc[n+](CC)c5ccc(N)cc45)cc3)cc2)cc1`, the T/C reads like this: (dose: 0.5 mg/kg/injection, schedule: Q01DX009 (ip), vehicle: saline) 95 % of control; (dose: 0.5 mg/kg/injection, schedule: Q01DX009 (ip), vehicle: water) 96 % of control; (dose: 1.0 mg/kg/injection, schedule: Q01DX009 (ip), vehicle: saline) 102 % of control; (dose: 1.0 mg/kg/injection, schedule: Q01DX009 (ip), vehicle: water) 113 % of control; (dose: 2.0 mg/kg/injection, schedule: Q01DX009 (ip), vehicle: saline) 100 % of control; (dose: 2.0 mg/kg/injection, schedule: Q01DX009 (ip), vehicle: water) 116 % of control. Further, the T/C was 111 % of control (dose: 4.0 mg/kg/injection, schedule: Q01DX009 (ip), vehicle: saline); 106 % of control (dose: 4.0 mg/kg/injection, schedule: Q01DX009 (ip), vehicle: water); 114 % of control (dose: 8.0 mg/kg/injection, schedule: Q01DX009 (ip), vehicle: saline).

Take `CC(C)CC(NC(=O)C(N)C(C)C)C(=O)NC(CCCCN)C(=O)Nc1ccc(N(CCCl)CCCl)cc1` (centres undefined): the T/C by setting is: (dose: 0.74 mg/kg/injection, schedule: Q01DX009 (ip), vehicle: saline) 105 % of control; (dose: 1.49 mg/kg/injection, schedule: Q01DX009 (ip), vehicle: saline) 109 % of control and 120 % of control; (dose: 5.95 mg/kg/injection, schedule: Q01DX009 (ip), vehicle: saline) 159 % of control and 182 % of control.

For `COc1ccccc1NC(=O)Nc1ccccc1OC`, the T/C is 89 % of control under setting [1], 89 % of control under setting [2] and 88 % of control under setting [3].

For the compound `CC[n+]1c(C)ccc2ccccc21`, the T/C was 112 % of control (dose: 25.0 mg/kg/injection, schedule: Q01DX009 (ip), vehicle: carboxymethylcellulose (CMC)) and 96 % of control (dose: 50.0 mg/kg/injection, schedule: Q01DX009 (ip), vehicle: carboxymethylcellulose (CMC)).

`CNC(=O)Nc1ccccc1C(=O)NN`: the T/C was 106 % of control under setting [4], 100 % of control under setting [5], 100 % of control under setting [1] and 97 % of control under setting [2].

Consider `CCOC(=O)/C=C(\C)Nc1ccc(F)cc1`, for which the T/C by setting is: under setting [1], 88 % of control; under setting [2], 97 % of control; under setting [3], 91 % of control.

`C1=NC(c2ccccn2)=NNC(c2ccccn2)=C1c1ccccc1`: the T/C was 100 % of control under setting [4], 101 % of control under setting [5] and 86 % of control under setting [1].

Take `CCC(CC)(COS(=O)(=O)c1ccc(C)cc1)COS(=O)(=O)c1ccc(C)cc1`: the T/C is 100 % of control under setting [1], 93 % of control under setting [2] and 93 % of control under setting [3].

Consider `C[CH2][Sn]1([CH2]C)[O]OC(c2ccccc2)[O]1` (centres undefined), for which the T/C is 106 % of control (dose: 0.78 mg/kg/injection, schedule: Q01DX009 (ip), vehicle: saline with Tween-80); 105 % of control and 111 % of control (dose: 1.56 mg/kg/injection, schedule: Q01DX009 (ip), vehicle: saline with Tween-80); 109 % of control and 112 % of control (dose: 3.12 mg/kg/injection, schedule: Q01DX009 (ip), vehicle: saline with Tween-80); 113 % of control and 116 % of control (dose: 6.25 mg/kg/injection, schedule: Q01DX009 (ip), vehicle: saline with Tween-80); 101 % of control and 117 % of control under setting [6].

Turning to `O=NN(CCCl)C(=O)NC1[C@H](O)CCC[C@@H]1O` (some centres undefined), the T/C was 159 % of control (dose: 0.63 mg/kg/injection, schedule: Q01DX009 (ip), vehicle: saline); 208 % of control (dose: 1.25 mg/kg/injection, schedule: Q01DX009 (ip), vehicle: saline); 295 % of control (dose: 2.5 mg/kg/injection, schedule: Q01DX009 (ip), vehicle: saline); 295 % of control (dose: 5.0 mg/kg/injection, schedule: Q01DX009 (ip), vehicle: saline).

`CN(C)CC(CN1c2ccccc2Sc2ccccc21)N(C)C` (centres undefined): the T/C reads like this: under setting [7], 102 % of control; under setting [8], 107 % of control; under setting [9], 107 % of control; (dose: 25.0 mg/kg/injection, schedule: Q01DX009 (ip), vehicle: saline) 120 % of control; (dose: 50.0 mg/kg/injection, schedule: Q01DX009 (ip), vehicle: saline) 105 % of control.

Take `CS(=O)(=O)OCc1c(O)c2c(c(O)c1COS(C)(=O)=O)C(=O)C=CC2=O`: the T/C reads like this: (dose: 6.25 mg/kg/injection, schedule: Q01DX009 (ip), vehicle: Klucel (hydroxypropylcellulose) (HPC)) 111 % of control; (dose: 12.5 mg/kg/injection, schedule: Q01DX009 (ip), vehicle: Klucel (hydroxypropylcellulose) (HPC)) 106 % of control; under setting [4], 102 % of control; under setting [5], 97 % of control.

Regarding `O=C(Nc1ccc(C(=O)Nc2cc(S(=O)(=O)O)cc3cccc(S(=O)(=O)O)c23)cc1)Nc1ccc(C(=O)Nc2cc(S(=O)(=O)O)cc3cccc(S(=O)(=O)O)c23)cc1`, the T/C reads like this: under setting [5], 108 % of control; under setting [1], 113 % of control; under setting [2], 100 % of control.

Turning to `NC(=S)N/N=C/c1ccc(C(F)(F)F)cn1`, the T/C is 106 % of control (dose: 8.8 mg/kg/injection, schedule: Q01DX009 (ip), vehicle: Klucel (hydroxypropylcellulose) (HPC)); 108 % of control (dose: 13.3 mg/kg/injection, schedule: Q01DX009 (ip), vehicle: Klucel (hydroxypropylcellulose) (HPC)); 109 % of control (dose: 20.0 mg/kg/injection, schedule: Q01DX009 (ip), vehicle: Klucel (hydroxypropylcellulose) (HPC)).

For the compound `CN1CCCCC1CCN1c2ccccc2Sc2ccc(Br)cc21` (centres undefined), the T/C reads like this: (dose: 0.78 mg/kg/injection, schedule: Q01DX009 (ip), vehicle: saline) 109 % of control; under setting [7], 105 % of control; under setting [8], 107 % of control; under setting [9], 96 % of control.

In the case of `CC(=O)Oc1[nH]c(=O)c2cccc3c2c1CCC3`, the T/C was 106 % of control under setting [10]; 107 % of control under setting [11]; 115 % of control under setting [12]; 114 % of control under setting [13]; 105 % of control under setting [14].

With `COc1cccc(CNc2ccc(SC)cc2)c1OC`, the T/C by setting is: under setting [1], 100 % of control; under setting [2], 93 % of control; under setting [3], 93 % of control.

For the compound `CC(CP(=O)(c1ccccc1)c1ccccc1)C(=O)O` (centres undefined), the T/C is 95 % of control under setting [12], 97 % of control under setting [13] and 90 % of control under setting [14].

For `CC(C)C(=O)[O][Sn]([CH3])([CH3])[CH3]`, the T/C by setting is: (dose: 0.19 mg/kg/injection, schedule: Q01DX009 (ip), vehicle: saline) 107 % of control; (dose: 0.38 mg/kg/injection, schedule: Q01DX009 (ip), vehicle: saline) 105 % of control; (dose: 0.75 mg/kg/injection, schedule: Q01DX009 (ip), vehicle: saline) 100 % of control.

For `CCOC(=O)C(NC(C)=O)C(=O)OCC`, the T/C was 90 % of control (dose: 100.0 mg/kg/injection, schedule: Q04DX003 (ip), vehicle: Klucel (hydroxypropylcellulose) (HPC)); 102 % of control (dose: 200.0 mg/kg/injection, schedule: Q04DX003 (ip), vehicle: Klucel (hydroxypropylcellulose) (HPC)); 95 % of control (dose: 400.0 mg/kg/injection, schedule: Q04DX003 (ip), vehicle: Klucel (hydroxypropylcellulose) (HPC)).

As for `CC(=O)N(C(C)=O)C1=C(c2ccccc2)C(=O)c2ccccc21`, the T/C under setting [1] is 100 % of control, the T/C under setting [2] was 97 % of control and the T/C under setting [3] is 97 % of control.

Consider `Oc1c(Cl)c(Cl)c(Cl)c(Cl)c1Cl` (tested in a mixture with another compound), for which the T/C was 107 % of control under setting [6]; 122 % of control (dose: 12.5 mg/kg/injection, schedule: Q04DX003 (ip), vehicle: saline with Tween-80); 115 % of control under setting [10]; 102 % of control (dose: 25.0 mg/kg/injection, schedule: Q04DX003 (ip), vehicle: saline with Tween-80); 121 % of control under setting [11]; 102 % of control (dose: 50.0 mg/kg/injection, schedule: Q04DX003 (ip), vehicle: saline with Tween-80).
